Assay results: patent US20080058411A1, “Methods For Treating Resistant Or Refractory Tumors” (GPC Biotech AG, priority 2004, published 2008)
Read-outs that look alike come from different tables or passages of the source.

Columns and labels:
1A9 cells = assay: SRB cytotoxicity assay, parental paclitaxel-sensitive 1A9 cells; type: cell-based, human; details: mean +/- SD, number of experiments in brackets, read-out: IC50 1A9 ("non-resistant")
From the text: (§1) The tubulin mutated, paclitaxel-resistant human ovarian carcinoma cell line 1A9-PTX10 and its parental paclitaxel-sensitive cell line 1A9 were derived from the A2780 human ovarian carcinoma cell line (J Biol Chem (1997) 272, 17118-17124).

1A9-PTX10 cells = assay: SRB cytotoxicity assay, tubulin mutated paclitaxel-resistant 1A9-PTX10 cells; type: cell-based, human; details: for IC50: 48 hours exposure, SRB, mean +/- SD, number of experiments in brackets; for RR (relative resistance) 1A9-PTX10 vs 1A9: ratio of the means of the resistant cells compared to the sensitive cells
From the text: as §1

[1] = system: NCI-Adr resistant subline; assay: SRB cytotoxicity assay, P-glycoprotein expressing NCI-Adr resistant subline, with and without verapamil; type: cell-based; details: for IC50: 48 hours, SRB; for RR (relative resistance) NCI-Adr resistant −verapamil vs +verapamil: ratio of the means of the resistant cells compared to the sensitive cells
Protocol: (§5) Briefly, cells were plated in 96 well dishes 24 hours prior to compound addition. Where noted, they were exposed to verapamil for 4 hours prior to compound addition and then throughout the treatment period (48 hours). The assay was terminated with the addition of cold TCA to a final concentration of 10% and the plates were incubated for one hour at 4° C. The plates were then washed 5 times with water and 100 μl of a Sulforhodamine B solution (4%) was added to each well. The plate was then incubated for 10 minutes at room temperature before removal of unbound dye by washing with 1% acetic acid. The bound dye was solubilized with 10 mM Trizma base and the absorbance read at OD570.

CCRF/CEM cells = assay: Calcein AM viability assay (flow cytometry), parental CEM cells; type: cell-based, human; details: 48 hours, read-out: IC50 CEM ("non-resistant")
Protocol: (§2) The Camptothecin resistant CEM/C2 cells were derived from the T lymphoblastoid leukemia cell line CCRF/CEM by selection in the presence of Camptohecin in vitro (Kapoor et al., 1995. Oncology Research 7; 83-95, ATCC
(§3) The cells were plated in T-25 flasks in the presence or absence of compound and incubated for 48 hours before termination of the assay. Cells were washed twice with PBS and incubated in 200 μl of a solution of Calcein AM (0.3 nM)/PBS for 90 minutes at 37° C. The cells were washed once with PBS before determining fluorescent units on a FACS can flow cytometer.

CEM/C2 cells = assay: Calcein AM viability assay (flow cytometry), camptothecin resistant CEM/C2 cells; type: cell-based, human; details: for IC50: 48 hours, Calcein AM; for RR (relative resistance) CEM/C2 vs CEM: atypical multi-drug resistance and mutant topoisomerase I
Protocol: as §2, §3

cells in S-phase = details: in vitro; cited from earlier work
MCF-7 cells = assay: SRB cytotoxicity assay, parental MCF-7 cells; type: cell-based; details: read-out: IC50 MCF7 ("non-resistant")
From the text: (§4) The etoposide-resistant breast cancer cell line MCF-7/VP was used (Schneider et al, Cancer Res, 54, 152). […] ABCC1; Schneider et al, Cancer Res, 54, 152; Perez-Soler et al, Int J Cancer, 71,35). The parental cell line, MCF-7, was used as a control.

MCF-7/VP cells = assay: SRB cytotoxicity assay, etoposide-resistant MCF-7/VP cells (MRP1 up-regulated); type: cell-based; details: for IC50: 48 hours, SRB; for RR (relative resistance) MCF7/VP vs MCF7: mean +/- SD
From the text: as §4

A129 cells = assay: SRB cytotoxicity assay, parental A129 cells; type: cell-based, human; details: 48 hours, read-out: IC50 A129 ("non-resistant")
Protocol: (§6) The P-glycoprotein expressing NCI-Adr resistant subline (Vickers et al., 1989. Mol Endocrinology 3 (1):157-164) was used. […] Briefly, cells were plated in 96 well dishes 24 hours prior to compound addition. Where noted, they were exposed to verapamil for 4 hours prior to compound addition and then throughout the treatment period (48 hours). The assay was terminated with the addition of cold TCA to a final concentration of 10% and the plates were incubated for one hour at 4° C. The plates were then washed 5 times with water and 100 μl of a Sulforhodamine B solution (4%) was added to each well. The plate was then incubated for 10 minutes at room temperature before removal of unbound dye by washing with 1% acetic acid. The bound dye was solubilized with 10 mM Trizma base and the absorbance read at OD570.
(§7) The parental non-mutated cell line A 129 was used as control.
(§8) Cytotoxicty was measured using the SRB assay according to Shekan et al. as described above in Example 1A.

A129 cp80 cells = assay: SRB cytotoxicity assay, cisplatin-resistant A129 cp80 cells; type: cell-based, human; details: for IC50: 48 hours, SRB
Protocol: as §6, §7, §8

P-gp = P-gp (Homo sapiens, UniProt P08183); details: more potent than cyclosporine; cited from earlier work
HT29 cells = assay: SRB cytotoxicity assay, parental HT29 cells; type: cell-based; details: read-out: IC50 HT-29 ("non-resistant")
Protocol: as §5
(§9) The mitoxantrone-resistant colon carcinoma cell line HT29/MIT was used (Perego et al, Cancer Res, 61, 6034). […] The parental cell line, HT29, was used as a control.

HT29/MIT cells = assay: SRB cytotoxicity assay, mitoxantrone-resistant HT29/MIT cells (BCRP up-regulated); details: for IC50: read-out: IC50 HT-29/MIT ("resistant"); for RR (relative resistance) HT-29/MIT vs HT-29: mean +/- SD
Protocol: as §5, §9

[2] = Homo sapiens, 1A9, 48 hours exposure
[3] = Homo sapiens, NCI/ADR-RES, no verapamil, read-out: IC50 NCI-Adr resistant −verapamil ("resistant")
[4] = Homo sapiens, NCI/ADR-RES, verapamil 12.5 μg/ml, read-out: IC50 NCI-Adr resistant +verapamil ("non-resistant")
[5] = no verapamil, read-out: IC50 NCI-Adr resistant −verapamil ("resistant")
[6] = verapamil 12.5 μg/ml, read-out: IC50 NCI-Adr resistant +verapamil ("non-resistant")
[7] = read-out: IC50 MCF7/VP ("resistant")

Chain of P-gp (P08183 whole entry): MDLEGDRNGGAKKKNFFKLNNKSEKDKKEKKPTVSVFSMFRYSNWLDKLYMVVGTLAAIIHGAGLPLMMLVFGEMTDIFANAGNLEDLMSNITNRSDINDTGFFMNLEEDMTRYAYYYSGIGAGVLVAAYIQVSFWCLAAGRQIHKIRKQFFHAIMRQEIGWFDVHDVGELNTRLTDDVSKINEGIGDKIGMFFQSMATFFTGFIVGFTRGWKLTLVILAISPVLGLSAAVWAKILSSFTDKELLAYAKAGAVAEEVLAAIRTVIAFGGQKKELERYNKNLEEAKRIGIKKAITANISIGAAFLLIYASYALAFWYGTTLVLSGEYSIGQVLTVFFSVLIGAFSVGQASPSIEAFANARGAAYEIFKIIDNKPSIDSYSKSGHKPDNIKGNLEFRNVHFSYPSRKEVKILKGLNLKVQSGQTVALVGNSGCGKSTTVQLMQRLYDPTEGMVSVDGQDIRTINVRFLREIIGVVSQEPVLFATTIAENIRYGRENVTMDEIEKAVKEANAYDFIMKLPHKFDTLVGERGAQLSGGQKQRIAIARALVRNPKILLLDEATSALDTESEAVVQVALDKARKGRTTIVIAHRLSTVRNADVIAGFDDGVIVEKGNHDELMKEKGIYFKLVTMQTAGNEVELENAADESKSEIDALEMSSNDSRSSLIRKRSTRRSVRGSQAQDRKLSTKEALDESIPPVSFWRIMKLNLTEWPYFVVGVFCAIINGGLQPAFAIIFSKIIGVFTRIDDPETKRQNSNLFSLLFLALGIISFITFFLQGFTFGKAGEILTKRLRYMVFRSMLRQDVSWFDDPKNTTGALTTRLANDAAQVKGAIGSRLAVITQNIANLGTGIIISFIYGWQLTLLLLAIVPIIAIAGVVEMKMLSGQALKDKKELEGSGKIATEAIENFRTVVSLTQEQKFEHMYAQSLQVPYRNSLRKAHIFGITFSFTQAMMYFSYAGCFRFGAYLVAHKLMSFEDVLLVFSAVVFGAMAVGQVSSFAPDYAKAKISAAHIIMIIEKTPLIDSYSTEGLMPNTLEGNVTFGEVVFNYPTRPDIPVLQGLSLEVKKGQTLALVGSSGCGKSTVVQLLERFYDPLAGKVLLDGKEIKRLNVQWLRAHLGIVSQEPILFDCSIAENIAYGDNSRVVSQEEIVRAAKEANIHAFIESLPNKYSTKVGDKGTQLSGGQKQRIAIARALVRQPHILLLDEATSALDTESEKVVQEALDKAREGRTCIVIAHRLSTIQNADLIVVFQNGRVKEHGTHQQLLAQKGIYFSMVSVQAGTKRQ

CC(=O)O[C@@]12CO[C@@H]1C[C@H](O)[C@@]1(C)C(=O)[C@H](O)C3=C(C)[C@@H](OC(=O)[C@H](O)[C@@H](NC(=O)OC(C)(C)C)c4ccccc4)C[C@@](O)([C@@H](OC(=O)c4ccccc4)[C@H]21)C3(C)C [Taxotere, N-debenzoyl-N-tert-butoxycarbonyl-10-deacetyl paclitaxel]
IC50 (1A9 cells; [2]): 2 nM | IC50 (1A9-PTX10 cells; Homo sapiens, 1A9/ptx-10): 212 nM | IC50 [1, 3]: 620 nM | IC50 [1, 4]: 19 nM

CC[C@@]1(O)C(=O)OCc2c1cc1n(c2=O)Cc2cc3ccccc3nc2-1 [Camptothecin, camptothecin]
IC50 (CCRF/CEM cells; Homo sapiens, CCRF-CEM): 5 nM | IC50 (CEM/C2 cells; Homo sapiens, CEM/C2): 6750 nM | RR (relative resistance) CEM/C2 vs CEM (CEM/C2 cells): 1500 | sensitivity to camptothecin of cells in S-phase relative to cells in G1 or G2 (cells in S-phase): 100-1000 times

COc1cc([C@@H]2c3cc4c(cc3[C@@H](O[C@@H]3O[C@@H]5CO[C@@H](C)O[C@H]5[C@H](O)[C@H]3O)[C@H]3COC(=O)[C@H]23)OCO4)cc(OC)c1O [Etoposide, etoposide]
IC50 (MCF-7 cells; Homo sapiens, MCF7, 48 hours): 7200 nM | IC50 (MCF-7/VP cells; Homo sapiens, MCF7-VP): > 100000 nM | RR (relative resistance) MCF7/VP vs MCF7 (MCF-7/VP cells): >20 | relative resistance in individual experiments, MCF-7/VP vs MCF-7 (MCF-7/VP cells; range over individual experiments): > 20 fold

N.N.[Cl][Pt][Cl] [Cisplatin, cisplatin]
IC50 (1A9 cells; 48 hours exposure): 8400 nM | IC50 (1A9-PTX10 cells): 13900 nM | IC50 [1, 5]: 13200 nM | IC50 [1, 6]: 13000 nM | IC50 (CCRF/CEM cells): 2600 nM | IC50 (CEM/C2 cells): 2200 nM | IC50 (MCF-7 cells; 48 hours): 28700 nM | IC50 (MCF-7/VP cells; [7]): 31200 nM | IC50 (A129 cells): 130 nM | IC50 (A129 cp80 cells): 11600 nM

CC(=O)O[C@H]1C(=O)[C@@]2(C)[C@H]([C@H](OC(=O)c3ccccc3)[C@]3(O)C[C@H](OC(=O)[C@H](O)[C@@H](NC(=O)c4ccccc4)c4ccccc4)C(C)=C1C3(C)C)[C@]1(OC(C)=O)CO[C@@H]1C[C@@H]2O [Paclitaxel, paclitaxel]
IC50 (1A9 cells; [2]): 5 nM | IC50 (1A9-PTX10 cells; Homo sapiens, 1A9/ptx-10): 213 nM | RR (relative resistance) 1A9-PTX10 vs 1A9 (1A9-PTX10 cells): 42.6 | IC50 [1, 3]: 1420 nM | IC50 [1, 4]: 31 nM | RR (relative resistance) NCI-Adr resistant −verapamil vs +verapamil [1]: 46

C/C=C/C[C@@H](C)C(=O)[C@H]1C(=O)N[C@@H](C(C)C)C(=O)N(C)CC(=O)N(C)[C@@H](CC(C)C)C(=O)N[C@@H](C(C)C)C(=O)N(C)[C@@H](CC(C)C)C(=O)N[C@@H](C)C(=O)N[C@H](C)C(=O)N(C)[C@@H](CC(C)C)C(=O)N(C)[C@@H](CC(C)C)C(=O)N(C)[C@@H](C(C)C)C(=O)N1C [PSC-833]
P-gp inhibitor potency relative to cyclosporine (P-gp): 10 times

O=C1c2c(O)ccc(O)c2C(=O)c2c(NCCNCCO)ccc(NCCNCCO)c21 [Mitoxantrone, mitoxantrone]
IC50 (HT29 cells; Homo sapiens, HT-29, 48 hours): 1300 nM | IC50 (HT29/MIT cells; Homo sapiens, HT-29, 48 h): 198000 nM | RR (relative resistance) HT-29/MIT vs HT-29 (HT29/MIT cells): 175 +/− 67

N.NC1CCCCC1.[Cl-].[Cl-].[Pt+2] [JM118]
IC50 (1A9 cells; 48 hours exposure): 500 nM | IC50 (1A9-PTX10 cells): 1500 nM | RR (relative resistance) 1A9-PTX10 vs 1A9 (1A9-PTX10 cells): 3.1 | IC50 [1, 5]: 2100 nM | RR (relative resistance) NCI-Adr resistant −verapamil vs +verapamil [1]: 1.1 | IC50 [1, 6]: 2300 nM | IC50 (CCRF/CEM cells): 430 nM | IC50 (CEM/C2 cells): 500 nM | RR (relative resistance) CEM/C2 vs CEM (CEM/C2 cells): 1.18 | IC50 (HT29 cells; 48 hours): 4500 nM | IC50 (MCF-7 cells; 48 hours): 1200 nM | IC50 (MCF-7/VP cells; [7]): 1300 nM | RR (relative resistance) MCF7/VP vs MCF7 (MCF-7/VP cells): 1.1 +/− 0.1 | IC50 (A129 cells): 170 nM | IC50 (A129 cp80 cells): 430 nM | RR (relative resistance) A129 cp80 vs A129 (A129 cp80 cells; cisplatin resistance mechanism): 2.6 | RR (relative resistance) HT-29/MIT vs HT-29 (HT29/MIT cells): 1.3 +/− 0.1 | IC50 (HT29/MIT cells; 48 hours, SRB): 6000 nM

COc1cccc2c1C(=O)c1c(O)c3c(c(O)c1C2=O)C[C@@](O)(C(=O)CO)C[C@@H]3O[C@H]1C[C@H](N)[C@H](O)[C@H](C)O1 [Adriamycin, adriamycin]
IC50 [1, 3]: 650 nM | IC50 [1, 4]: 75000 nM | relative resistance, NCI-Adr resistant subline without vs with verapamil ([1]; individual experiments): 115 fold | RR (relative resistance) NCI-Adr resistant −verapamil vs +verapamil [1]: 115
